Assay results as given in publication PMC5862408, “CCR2 antagonism leads to marked reduction in proteinuria and glomerular injury in murine models of focal segmental glomerulosclerosis (FSGS)” (PLoS ONE, 2018).
Values joined by “and” are separate entries in the source; they are usually repeats but may differ in a detail not shown here. Equal entries are not always repeated.

Legend:
Type in all cases: in vivo, mouse
[1] = system: Adriamycin challenged female Balb/c mice; assay: Adriamycin induced nephropathy model; conditions: for UAER: mean ± SEM
Method: Chemotaxis, calcium mobilization, and radio-ligand binding assays were conducted as previously described. Inhibition values (IC50) were calculated using non-linear regression with a one-site competition model (GraphPad Prism, GraphPad Software, La Jolla, CA). Urinary albumin was measured by ELISA (Bethyl Labs, Montgomery, TX). Urinary and serum creatinine was measured by LC-MS/MS at ChemoCentryx. The urinary albumin excretion rate (UAER) was calculated as micrograms per 24 h. Blood urea nitrogen (BUN) was measured by Antech Diagnostics (Morrisville, NC). Serum cystatin C was measured by ELISA (R&D Systems, Minneapolis, MN). The albumin to creatinine ratio (ACR) was calculated as micrograms of albumin per milligram of creatinine. These experiments were performed using female Balb/c mice (Jackson Laboratories, Bar Harbor, Maine). The mice were kept on standard chow and had free access to water. At age of 10 weeks, 7.5 mg/kg Adriamycin (Selleck Chemicals, Houston, TX) or saline (control) was injected via tail vein in isoflurane-anesthetized animals (day 0). CCX872 and/or vehicle were dosed subcutaneously once daily at 90 mg/kg formulated in 1% HPMC. The RAAS blocker Candesartan (AK Scientific, Union City, CA) and its vehicle were dosed orally once daily at 5 mg/kg, formulated in water. All dosing started 2 hours prior Adriamycin challenge. The mice were housed individually in metabolic cages for quantitative collection of urinary albumin and creatinine.  Fig 2 CCX872 improves renal function as assessed by UACR, serum creatinine and BUN in adriamycin challenged mice. Mice were challenged with Adriamycin as described in Methods. Test compound treatment was begun one hour prior to the Adriamycin challenge. Urine was collected for measurement of UAER (S3 Table) and creatinine at the indicated time points, and UACR was calculated as described in Methods. Serum creatinine and BUN were measured at time of terminal bleed after two weeks of treatment. Error bars represent standard error of the mean. N = 10/group at week 1, and N = 8 at week 2. p values were calculated on each treated group to vehicle treated animals using student’s t-test (GraphPad Prism).

[2] = system: 5/6 nephrectomized 129X1/SvJ mice; assay: 5/6 nephrectomy model (CCX872, RAAS blocker, combination); conditions: for BUN / Serum Creatinine / Serum Cystatin C: terminal bleed; for UACR: CCX872 90 mg/kg s.c., RAAS blocker 5 mg/kg orally, once daily
Method: (§1) Chemotaxis, calcium mobilization, and radio-ligand binding assays were conducted as previously described. Inhibition values (IC50) were calculated using non-linear regression with a one-site competition model (GraphPad Prism, GraphPad Software, La Jolla, CA). Urinary albumin was measured by ELISA (Bethyl Labs, Montgomery, TX). Urinary and serum creatinine was measured by LC-MS/MS at ChemoCentryx. The urinary albumin excretion rate (UAER) was calculated as micrograms per 24 h. Blood urea nitrogen (BUN) was measured by Antech Diagnostics (Morrisville, NC). Serum cystatin C was measured by ELISA (R&D Systems, Minneapolis, MN). The albumin to creatinine ratio (ACR) was calculated as micrograms of albumin per milligram of creatinine.
5/6 nephrectomy mice on the 129X1/SvJ background were obtained from Jackson Laboratories, and were received at ChemoCentryx after the surgery was performed at JAX. Under isoflurane anesthesia, two-thirds of the left kidney mass was removed at 5–6 weeks of age. Then, after 7 to 10 days, a right unilateral nephrectomy was performed. The mice were fed a standard chow and had free access to water. Three weeks after the 5/6 nephrectomy, the mice were grouped to ensure a similar starting UAER in each treatment group. CCX872 or its vehicle were dosed subcutaneously once daily formulated in 1% HPMC. The RAAS blocker Candesartan (AK Scientific, Union City, CA) and its vehicle were dosed orally once daily at 5 mg/kg formulated in water. Sparsentan, the dual-acting receptor antagonist for endothelin (A type) and angiotensin II receptors (Type 1) was synthesized at ChemoCentryx and was dosed orally twice daily at 90 mg/kg formulated in 1% HPMC. The mice were housed individually in metabolic cages for quantitative collection of urinary albumin and creatinine. […]
Fig 3 CCX872 improves renal function as assessed by UACR, serum creatinine, BUN and cystatin C in 5/6 nephrectomized mice. Mice underwent a 5/6 nephrectomy as described in Methods. Three weeks post-surgery the mice were randomized to the groups indicated above for the study period of 4 weeks. Urine was collected for measurement of albumin and creatinine at the indicated time points, and UACR was calculated as described in Methods. Serum creatinine, BUN and Cystatin C were measured at time of terminal bleed after four weeks of treatment. Error bars represent standard error of the mean. N = 10/group, and N = 6 at week 3. p values were calculated between each drug-treated group and vehicle treated animals (asterisk), or between CCX872/RAAS blocker combination and RAAS blocker alone (octothorpe) using student’s t-test (GraphPad Prism).

[3] = system: 5/6 nephrectomized 129X1/SvJ mice; assay: 5/6 nephrectomy model (comparison with ET1/AT1 dual inhibitor)
Method: as §1
5/6 nephrectomy mice on the 129X1/SvJ background were obtained from Jackson Laboratories, and were received at ChemoCentryx after the surgery was performed at JAX. Under isoflurane anesthesia, two-thirds of the left kidney mass was removed at 5–6 weeks of age. Then, after 7 to 10 days, a right unilateral nephrectomy was performed. The mice were fed a standard chow and had free access to water. Three weeks after the 5/6 nephrectomy, the mice were grouped to ensure a similar starting UAER in each treatment group. CCX872 or its vehicle were dosed subcutaneously once daily formulated in 1% HPMC. The RAAS blocker Candesartan (AK Scientific, Union City, CA) and its vehicle were dosed orally once daily at 5 mg/kg formulated in water. Sparsentan, the dual-acting receptor antagonist for endothelin (A type) and angiotensin II receptors (Type 1) was synthesized at ChemoCentryx and was dosed orally twice daily at 90 mg/kg formulated in 1% HPMC. The mice were housed individually in metabolic cages for quantitative collection of urinary albumin and creatinine.
Fig 4 Relative efficacy of CCR2, RAAS, and endothelin receptor blockade in the 5/6 nephrectomy model as assessed by UACR (mg/mg). Mice underwent a 5/6 nephrectomy as described in Methods. Three weeks post-surgery the mice were randomized to the indicated groups for the study period of 4 weeks. Urine was collected for measurement of UACR at the indicated time points, as described in Methods. Error bars represent standard error of the mean. N = 10/group at week 1, and N = 6 at week 4. p values were calculated between each drug-treated group and vehicle treated animals (asterisk), or between the CCX872/RAAS blocker combination and RAAS blocker alone (octothorpe) using student’s t-test (GraphPad Prism).

[4] = system: Adriamycin challenged female Balb/c mice; assay: Adriamycin induced nephropathy model; conditions: individual mice
[5] = terminal bleed, individual mice
[6] = four-week time point, mean ± SEM
[7] = individual mice, listed as RAASi

CCOc1nc2cccc(C(=O)O)c2n1Cc1ccc(-c2ccccc2-c2nnn[nH]2)cc1 [RAAS Blocker, Candesartan]
UAER ([1]; Week 1): 39.46 ± 14.14, p=0.16 mg/day | UAER ([1]; Week 2): 66.87 ± 23.99, p=0.52 mg/day | BUN [1, 5]: 100 mg/dL and 80 mg/dL and 65 mg/dL and 70 mg/dL and 85 mg/dL and 125 mg/dL and 75 mg/dL | Serum Creatinine [1, 5]: 0.927 µg/mL and 1.08 µg/mL and 1.05 µg/mL and 1.06 µg/mL and 0.956 µg/mL and 1.21 µg/mL and 0.91 µg/mL and 1.09 µg/mL and 1.14 µg/mL and 1.35 µg/mL | UAER ([2]; Week 1, mean ± SEM): 8.27± 1.89, p=0.03 mg/day | UAER ([2]; Week 2, mean ± SEM): 3.62 ± 1.63, p=0.03 mg/day | UAER ([2]; Week 3, mean ± SEM): 3.32 ± 0.76, p<0.0001 mg/day | BUN [2, 6]: 247.0 ± 16.42 mg/dL | Serum Creatinine [2, 6]: 2.78 ± 0.27 µg/mL | UAER (mg/day) at Week 1 ([2]; individual mice): 2.15 mg/day and 4.699 mg/day and 15.5467 mg/day and 16.4212 mg/day and 15.0186 mg/day and 0.6806 mg/day and 9.638 mg/day and 3.148 mg/day and 4.462 mg/day and 10.9401 mg/day | UAER (mg/day) at Week 2 ([2]; individual mice): 0.7796 mg/day and 9.402 mg/day and 12.4793 mg/day and 1.127 mg/day and 0.5679 mg/day and 1.491 mg/day and 1.407 mg/day and 1.719 mg/day | UAER (mg/day) at Week 3 ([2]; individual mice): 5.801 mg/day and 4.3025 mg/day and 1.247 mg/day and 2.019 mg/day and 1.844 mg/day and 4.699 mg/day | UACR (mg/mg) at Week 1 [2, 7]: 5.748 mg/mg and 5.722 mg/mg and 28.9118 mg/mg and 21.9395 mg/mg and 21.4656 mg/mg and 1.415 mg/mg and 15.8208 mg/mg and 5.683 mg/mg and 7.266 mg/mg and 18.781 mg/mg | UACR (mg/mg) at Week 3 [2, 7]: 7.871 mg/mg and 8.029 mg/mg and 3.677 mg/mg and 3.863 mg/mg and 2.8993 mg/mg and 7.734 mg/mg | Serum Cystatin C ([2]; individual mice): 0.9323 µg/mL and 2.095 µg/mL and 2.201 µg/mL and 1.815 µg/mL and 2.053 µg/mL and 1.1273 µg/mL and 1.429 µg/mL and 1.517 µg/mL and 1.562 µg/mL and 2.118 µg/mL | BUN [2, 7]: 245 mg/dL and 215 mg/dL and 265 mg/dL and 205 mg/dL and 330 mg/dL and 255 mg/dL and 170 mg/dL and 210 mg/dL | Serum Creatinine [2, 7]: 2.46 µg/mL and 1.88 µg/mL and 2.93 µg/mL and 2.22 µg/mL and 2.77 µg/mL and 2.85 µg/mL and 2.01 µg/mL and 5.03 µg/mL and 2.87 µg/mL | Serum Cystatin C ([2]; mean ± SEM): 1.68 ± 0.14 µg/mL | UACR ([2]; week 1, mean ± SEM): 13.28 ± 2.928 mg/mg | UACR ([2]; week 3, mean ± SEM): 5.679 ± 0.99 mg/mg | UAER ([3]; Week 1, mean ± SEM): 9.38 ± 7.70, p=0.27 mg/day | UAER ([3]; Week 2, mean ± SEM): 7.72 ± 6.37, p=0.06 mg/day | UAER ([3]; Week 4, mean ± SEM): 1.74 ± 2.49, p=0.02 mg/day | UACR (mg/mg) at Week 1 ([3]; individual mice): 0.2531 mg/mg and 1.465 mg/mg and 2.285 mg/mg and 73.9074 mg/mg and 1.319 mg/mg and 7.089 mg/mg and 0.4551 mg/mg and 1.07 mg/mg | UACR (mg/mg) at Week 4 ([3]; individual mice): 0.751 mg/mg and 2.804 mg/mg and 0.2303 mg/mg and 0.9337 mg/mg and 0.4088 mg/mg and 0.9456 mg/mg | UAER (mg/day) at Week 1 ([3]; individual mice): 0.1519 mg/day and 0.9615 mg/day and 2.137 mg/day and 63.0549 mg/day and 1.2792 mg/day and 6.0897 mg/day and 0.4778 mg/day and 0.9119 mg/day | UAER (mg/day) at Week 2 ([3]; individual mice): 0.4333 mg/day and 5.515 mg/day and 1.464 mg/day and 44.8051 mg/day and 0.7469 mg/day and 7.145 mg/day and 0.2974 mg/day and 1.3574 mg/day | UAER (mg/day) at Week 4 ([3]; individual mice): 1.13 mg/day and 3.156 mg/day and 0.298 mg/day and 1.221 mg/day and 0.2117 mg/day and 1.028 mg/day | UACR ([3]; week one, mean ± SEM, CCX872 90 mg/kg s.c. once daily, RAAS blocker 5 mg/kg orally once daily, Sparsentan 90 mg/kg orally twice daily): 10.98 ± 9.02 mg/mg | UACR (mg/mg) at Week 1 [4]: 20.0842 mg/mg and 22.2965 mg/mg and 25.3406 mg/mg and 40.1693 mg/mg and 41.555 mg/mg and 302.958 mg/mg and 55.6444 mg/mg and 187.49 mg/mg and 117.091 mg/mg and 7.322 mg/mg | UACR (mg/mg) at Week 2 [4]: 56.294 mg/mg and 76.9257 mg/mg and 96.611 mg/mg and 232.005 mg/mg and 248.91 mg/mg and 18.6549 mg/mg and 102.568 mg/mg and 35.7503 mg/mg | UAER (mg/day) at Week 1 [4]: 10.1862 mg/day and 10.9954 mg/day and 11.0332 mg/day and 14.9575 mg/day and 18.3446 mg/day and 113.025 mg/day and 29.5364 mg/day and 126.741 mg/day and 54.0627 mg/day and 5.677 mg/day | UAER (mg/day) at Week 2 [4]: 28.1393 mg/day and 36.5424 mg/day and 35.6435 mg/day and 176.989 mg/day and 173.035 mg/day and 14.0491 mg/day and 53.4766 mg/day and 17.1116 mg/day
